Reference: patent US5863776A, “Method of preparing apoenzyme” (Research Development Foundation, priority 1996, dated 1999)

T1: MAO B (Homo sapiens, UniProt P27338)
T1 construct: expressed in transfected cells; host or cells: COS-7 (African green monkey), riboflavin-containing (Rib+) or riboflavin-depleted (Rib-), transient electroporation
T1 sequence (P27338 1-520): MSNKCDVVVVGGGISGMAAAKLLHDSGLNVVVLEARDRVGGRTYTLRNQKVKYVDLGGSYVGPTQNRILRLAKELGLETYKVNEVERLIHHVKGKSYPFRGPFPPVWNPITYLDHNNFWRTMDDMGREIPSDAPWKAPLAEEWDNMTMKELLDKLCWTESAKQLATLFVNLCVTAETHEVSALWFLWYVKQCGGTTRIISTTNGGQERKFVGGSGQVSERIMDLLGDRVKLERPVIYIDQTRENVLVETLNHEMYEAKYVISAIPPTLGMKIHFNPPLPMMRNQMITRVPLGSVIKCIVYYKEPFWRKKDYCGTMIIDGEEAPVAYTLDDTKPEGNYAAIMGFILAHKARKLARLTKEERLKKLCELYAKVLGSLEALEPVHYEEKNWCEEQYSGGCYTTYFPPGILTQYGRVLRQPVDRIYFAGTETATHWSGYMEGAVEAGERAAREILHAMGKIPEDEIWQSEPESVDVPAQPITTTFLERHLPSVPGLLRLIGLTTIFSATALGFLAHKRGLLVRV


Legend:
MAO B [1] = target: T1, MAO B; assay: FAD coupling in intact cells: MAO B enzymatic activity after electroporation of MAO B cDNA with cofactor into Rib^- COS-7 cells ([^14 C] benzylamine substrate); type: cell-based; design: Percent of Holo-MAO B Activity: concentration or dose not given beside the values; settings: for Enzymatic Activity: cofactor added with MAO B cDNA into Rib^- COS-7 cells, 48 hours, mean ± SE, three experiments; for Percent of Holo-MAO B Activity: relative to holo-MAO B expressed in Rib^+ COS-7 cells, 2880 min; for restoration of active MAO B (in words): cofactor added with MAO B cDNA during electroporation
Experimental: (§1) Wild-type or mutant MAO B cDNAs were transiently transfected into COS-7 cells by electroporation (23) as previously described (18). Briefly, Rib^+ - or Rib^- COS-7 cells were harvested during late log phase growth and resuspended to a concentration of 3.1×10^6 cells/ml in either riboflavin-containing or riboflavin-free medium, respectively. Wild-type or mutant MAO B cDNAs ([…]) were added to 0.8 ml of cell suspension. […] Electroporation was carried out in a Bio-Rad Gene Pulser with a setting of 250 V and 500 μF. Cells were resuspended in 15 ml of riboflavin-containing or riboflavin-free medium and incubated at 37° C. with 5% CO2. Transfected COS-7 cells were harvested at 48 hours and homogenized in a lysis solution containing 20 mM Tris-HCl, 1 mM EDTA, 0.5 mM PMSF, pH 8.0. The homogenate was diluted with an equal volume of the same buffer supplemented with 300 mM NaCl to obtain a 150 mM final NaCl concentration. Triton X-100 (Pierce) was added to the lysate to give a final concentration of 0.25%, and the samples were allowed to stir for 50 min. at 4° C. to extract MAO B from the outer mitochondrial membrane. After Triton extraction, the lysate was centrifuged at 1300×g for 5 min. at 4° C. to remove insoluble cell debris.
MAO B activity was assayed radiometrically by a modification of the method of Wurtman and Axelrod (26) as described previously (18). Briefly, the reaction mixture contained 200 μl of 50 mM sodium phosphate buffer (pH 7.4), 3.6 nmole of 55 mCi/mmol [^14 C] benzylamine hydrochloride (Amersham), 10 nmoles of unlabeled benzylamine and 10 μl of cell lysate. Samples were run in triplicate, and one out of each set was denatured with […] of 6N HCl prior to the addition of substrate to serve as an internal control. All reactions were incubated for 9 minutes at 37° C., and terminated by the addition of 25 μl of 6N HCl. The reaction product was extracted with 500 μl of toluene, and an aliquot (200 μl) of the organic phase from each sample was counted in liquid scintillation fluid (Bio-Safe) in a Beckman LB 3801 scintillation counter.
FMN or riboflavin were also capable of restoring approximately 75% of MAO B holoenzyme activity. However, only 40% of MAO B holoenzyme activity was obtained by the addition of 8α-hydroxyriboflavin.
Various cofactors were added with MAO B cDNA into Rib^- COS7 cells

MAO B [2] = target: T1, MAO B; assay: Quantitation of expressed MAO B protein by ELISA in transfected COS-7 cells; type: cell-based; design: MAO B Expressed: unit not given here; settings: cofactor added with MAO B cDNA into Rib^- COS-7 cells; 48 hours; mean ± SE, three experiments
Experimental: Total protein concentrations of samples containing MAO B holoenzyme, apoenzyme, or variant MAO Bs were determined by a MicroBCA kit (Pierce). All samples were then adjusted to equal protein concentrations and assayed for MAO B protein by ELISA using a modification of the method of Yeomanson and Billett (25) as described previously (18).
MAO B cDNA was expressed sequentially at different time intervals in these cells during this riboflavin depletion process (FIG. 2). Each data point in FIG. 2 represents an individual expression assay. For each assay, a sample of COS-7 cells grown in riboflavin-free medium were transfected with MAO B cDNA via electroporation. Concurrently, Rib^+ COS-7 cells were transfected with MAO B cDNA to serve as a control. Following incubation for 48 hours, the cells were homogenized and assays were performed to determine protein concentration, MAO B concentration by ELISA using polyclonal antibodies, and MAO B activity using [^14 C] benzylamine.
An equal amount of MAO B cDNA (15 μg) was expressed in both types of […]

MAO B [3] = assay: [^14 C] FAD incorporation into wild-type or mutant MAO B in Rib^- COS-7 cells (immunoprecipitation, fluorography); type: binding, human; settings: about 59 kDa; equal MAO B concentrations
Experimental: Mutagenesis was carried out by the method of Deng and Nickoloff (22) using a Transformer Site-directed Mutagenesis kit (Clontech). Glu in position 34 was replaced with Asp (E34D), Gln (E34Q), or Ala (E34A), and Val in position 10 was replaced with Ile (V10I) as described by Kwan et al. (18).
as §1
Transfected Rib^+ - or Rib^- COS-7 cells were homogenized, and extracted with 0.25% Triton X-100 for 50 minutes at 4° C. The cell lysates were centrifuged at 1300×g for 5 minutes, and an aliqout of each supernatant was analyzed for MAO B concentration by ELISA. All supernatants were then adjusted to equal MAO B concentration and incubated with polyclonal goat anti-MAO B antibody (10 μg) overnight at 4° C. Protein-G Sepharose beads (Pierce) were added (50 μl) and incubation was continued for 3 hours. The protein-G Sepharose/goat antibody/MAO B immmunocomplex was collected by centrifugation at 10,000×g for 20 seconds and washed 6 times with 150 μl of 20 mM Tris buffer, pH 8.0. The immunocomplex was then dissolved in SDS-PAGE sample buffer and analyzed by Western blot or fluorography.
The immunoprecipitated proteins (obtained as described above) were subjected to electrophoresis in a 10% SDS-polyacrylamide gel and examined by Western blotting as previously described (18). The immunoprecipitated proteins (obtained as described above) were subjected to electrophoresis in a 10% SDS-polyacrylamide gel. The SDS-PAGE gel was fixed by soaking in 7% acetic acid, 10% methanol, 83% H2 O for 1 hour, and then processed for fluorography as described by Bonner and Laskey (27). The dried gel was exposed to Kodak X-OMAT AR film at -80° C. for 2 weeks.
The expressed wild-type and variant MAO Bs were adjusted to equal concentrations using ELISA before immunoprecipitation, and then analyzed by fluorography. The amount of incorporation of [^14 C] […] FAD was incorporated into the enzyme.

| Percent of Holo-MAO B Activity (MAO B [1]) [%] | Percent of Holo-MAO B Activity (MAO B [1]; listed as 8α-hydroxyriboflavin) [%] | MAO B Expressed (MAO B [2]) | restoration of active MAO B (in words) (MAO B [1]) | Molecule | MAO B activity relative to that obtained with riboflavin (MAO B [1]; Rib^- COS-7 cells) | Enzymatic Activity (MAO B [1]) | [^14 C] FAD incorporation (band on fluorogram) (MAO B [3]) |
| --- | --- | --- | --- | --- | --- | --- | --- |
| 39.8 | 40 | 0.95 ± 0.08 | – | Cc1cc2nc3c(=O)[nH]c(=O)nc-3n(C[C@H](O)[C@H](O)[C@H](O)CO)c2cc1CO [8α-OH Rib, 8α-hydroxyriboflavin] | about one half of that obtained with the addition of riboflavin | 0.45 ± 0.01 μmol benzylamine/minute/mg MAO | – |
| – | – | 0.81 ± 0.17 | equal levels of MAO B activity | Cc1cc2nc3c(=O)[nH]c(=O)nc-3n(C[C@H](O)[C@H](O)[C@H](O)COP(=O)(O)O)c2cc1C [FMN] | – | 0.85 ± 0.03 μmol benzylamine/minute/mg MAO | – |
| 1.8 | – | 1.14 ± 0.06 | did not yield active MAO B | NC(=O)c1ccc[n+]([C@@H]2O[C@H](COP(=O)(O)OP(=O)(O)OC[C@H]3O[C@@H](n4cnc5c(N)ncnc54)[C@H](O)[C@@H]3O)[C@@H](O)[C@H]2O)c1 [NAD^+] | – | 0.02 ± 0.00 μmol benzylamine/minute/mg MAO | – |
| – | – | – | – | wild-type: wild-type MAO B expressed in Rib^- COS-7 cells (protein, UniProt P27338 2-520, looked up) Amine oxidase …: SNKCDVVVVGGGISGMAAAKLLHDSGLNVVVLEARDRVGGRTYTLRNQKVKYVDLGGSYVGPTQNRILRLAKELGLETYKVNEVERLIHHVKGKSYPFRGPFPPVWNPITYLDHNNFWRTMDDMGREIPSDAPWKAPLAEEWDNMTMKELLDKLCWTESAKQLATLFVNLCVTAETHEVSALWFLWYVKQCGGTTRIISTTNGGQERKFVGGSGQVSERIMDLLGDRVKLERPVIYIDQTRENVLVETLNHEMYEAKYVISAIPPTLGMKIHFNPPLPMMRNQMITRVPLGSVIKCIVYYKEPFWRKKDYCGTMIIDGEEAPVAYTLDDTKPEGNYAAIMGFILAHKARKLARLTKEERLKKLCELYAKVLGSLEALEPVHYEEKNWCEEQYSGGCYTTYFPPGILTQYGRVLRQPVDRIYFAGTETATHWSGYMEGAVEAGERAAREILHAMGKIPEDEIWQSEPESVDVPAQPITTTFLERHLPSVPGLLRLIGLTTIFSATALGFLAHKRGLLVRV | – | – | dark band |
| – | – | – | – | V10I: control variant, Val in position 10 replaced with Ile (protein, UniProt P27338 2-520, looked up, variant V10I) Amine oxidase …: SNKCDVVVIGGGISGMAAAKLLHDSGLNVVVLEARDRVGGRTYTLRNQKVKYVDLGGSYVGPTQNRILRLAKELGLETYKVNEVERLIHHVKGKSYPFRGPFPPVWNPITYLDHNNFWRTMDDMGREIPSDAPWKAPLAEEWDNMTMKELLDKLCWTESAKQLATLFVNLCVTAETHEVSALWFLWYVKQCGGTTRIISTTNGGQERKFVGGSGQVSERIMDLLGDRVKLERPVIYIDQTRENVLVETLNHEMYEAKYVISAIPPTLGMKIHFNPPLPMMRNQMITRVPLGSVIKCIVYYKEPFWRKKDYCGTMIIDGEEAPVAYTLDDTKPEGNYAAIMGFILAHKARKLARLTKEERLKKLCELYAKVLGSLEALEPVHYEEKNWCEEQYSGGCYTTYFPPGILTQYGRVLRQPVDRIYFAGTETATHWSGYMEGAVEAGERAAREILHAMGKIPEDEIWQSEPESVDVPAQPITTTFLERHLPSVPGLLRLIGLTTIFSATALGFLAHKRGLLVRV | – | – | dark band |

| Molecule | Percent of Holo-MAO B Activity (MAO B [1]) [%] | Percent of Holo-MAO B Activity (MAO B [1]; listed as 8α-hydroxyriboflavin) [%] | MAO B Expressed (MAO B [2]) | restoration of active MAO B (in words) (MAO B [1]) | MAO B activity relative to that obtained with riboflavin (MAO B [1]; Rib^- COS-7 cells) | Enzymatic Activity (MAO B [1]) | [^14 C] FAD incorporation (band on fluorogram) (MAO B [3]) |
| --- | --- | --- | --- | --- | --- | --- | --- |
| Cc1cc2nc3c(=O)[nH]c(=O)nc-3n(C[C@H](O)[C@H](O)[C@H](O)CO)c2cc1C [Riboflavin, riboflavin] | 76.1 | – | 0.90 ± 0.13 | equal levels of MAO B activity | – | 0.86 ± 0.06 μmol benzylamine/minute/mg MAO | – |
